Results as given in patent US9345722B2, “Pharmaceutical formulations for the treatment of alzheimer's disease” (EMISPHERE TECHNOLOGIES, INC., priority 2006, dated 2016).

Tests used:
[1] = CPHPC added to solvents to the point of saturation (donor solutions); type: physicochemical; conditions: ethanolamine as solvent
Experimental: CPHC was added to the solvents listed in Table 1 below to the point of saturation: […]

[2] = Oral delivery of CPHPC in rats, serum CPHPC concentrations; type: in vivo
Experimental: One group of rats were dosed by oral gavage a solution containing 200 mg/kg SNAC and 10 mg/kg CPHPC (Group 1). The dosing volume was 1 mL/kg. Two groups of rats also received, respectively, control arms of 10 mg/kg CPHPC alone via oral gavage (Group 2) and 0.2 mg/kg of CPHPC via IV (Group 3).
Serum CPHPC concentrations […]) were measured over 40 minutes.

[3] = investigational studies, background; cited from earlier work

With O=C(O)[C@H]1CCCN1C(=O)CCCCC(=O)N1CCC[C@@H]1C(=O)O [CPHPC, R-1-(6-(R-2-carboxy-pyrrolidin-1-yl)-6-oxo-hexanoyl)pyrrolidine-2-carboxylic acid] the “Solubility of CPHPC in ethanolamine compared with the other solvents” value [1] was “much more soluble in ethanolamine”, the Serum CPHPC concentration ([2]; Group 1: 200 mg/kg SNAC and 10 mg/kg CPHPC via PO, 0 min.) was 0 ng/mL and the Serum CPHPC concentration ([2]; Group 1: 200 mg/kg SNAC and 10 mg/kg CPHPC via PO, 5 min.) was 2960 ± 1210 ng/mL. For the same molecule, the Serum CPHPC concentration ([2]; Group 1: 200 mg/kg SNAC and 10 mg/kg CPHPC via PO, 10 min.) was 5480 ± 526 ng/mL, the Serum CPHPC concentration ([2]; Group 1: 200 mg/kg SNAC and 10 mg/kg CPHPC via PO, 20 min.) was 2800 ± 400 ng/mL and the Serum CPHPC concentration ([2]; Group 1: 200 mg/kg SNAC and 10 mg/kg CPHPC via PO, 40 min.) was 1440 ± 219 ng/mL. The Serum CPHPC concentration ([2]; Group 2: 10 mg/kg CPHPC alone via PO, 0 min.) was 0 ng/mL, the Serum CPHPC concentration ([2]; Group 2: 10 mg/kg CPHPC alone via PO, 5 min.) was 1060 ± 107 ng/mL and the Serum CPHPC concentration ([2]; Group 2: 10 mg/kg CPHPC alone via PO, 10 min.) was 1420 ± 171 ng/mL. For the same molecule, the Serum CPHPC concentration ([2]; Group 2: 10 mg/kg CPHPC alone via PO, 20 min.) was 667 ± 97.1 ng/mL, the Serum CPHPC concentration ([2]; Group 2: 10 mg/kg CPHPC alone via PO, 40 min.) was 175 ± 15 ng/mL and the Serum CPHPC concentration ([2]; Group 3: 0.2 mg/kg CPHPC via IV, 0 min.) was 0 ng/mL. For the same molecule, the Serum CPHPC concentration ([2]; Group 3: 0.2 mg/kg CPHPC via IV, 5 min.) was 223 ± 19.5 ng/mL, the Serum CPHPC concentration ([2]; Group 3: 0.2 mg/kg CPHPC via IV, 10 min.) was 229 ± 44.8 ng/mL and the Serum CPHPC concentration ([2]; Group 3: 0.2 mg/kg CPHPC via IV, 20 min.) was 170 ± 26.2 ng/mL. The Serum CPHPC concentration ([2]; Group 3: 0.2 mg/kg CPHPC via IV, 40 min.) was 65.4 ± 25.7 ng/mL and the oral bioavailability [3] was “poor oral bioavailability”.
